# From PMC9861162 (Pharmaceuticals, 2022)
# Columns and labels:
# [1] = target: T1, CYP2C8 (Homo sapiens, UniProt P10632); design: method as in Hua et al. [19]; settings: by CYP2C8; ref Hua et al. [19]; cited from earlier work
# T1 sequence (P10632 1-490): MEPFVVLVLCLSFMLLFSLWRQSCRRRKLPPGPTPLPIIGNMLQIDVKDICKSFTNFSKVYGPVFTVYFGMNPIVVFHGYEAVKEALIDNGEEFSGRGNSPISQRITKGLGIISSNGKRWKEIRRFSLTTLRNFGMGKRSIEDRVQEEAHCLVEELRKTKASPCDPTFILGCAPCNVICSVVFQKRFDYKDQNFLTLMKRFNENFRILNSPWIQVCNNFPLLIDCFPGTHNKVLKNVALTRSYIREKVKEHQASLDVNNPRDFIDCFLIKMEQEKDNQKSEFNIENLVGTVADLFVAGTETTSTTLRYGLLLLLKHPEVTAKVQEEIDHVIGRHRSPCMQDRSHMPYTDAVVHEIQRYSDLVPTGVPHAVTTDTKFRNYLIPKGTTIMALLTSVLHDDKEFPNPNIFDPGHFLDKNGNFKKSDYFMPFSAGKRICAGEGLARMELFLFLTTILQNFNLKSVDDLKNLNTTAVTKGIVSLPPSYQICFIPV
# [2] = system: CYP3A; settings: clinical DDI studies; ref [9]; cited from earlier work
# [3] = system: CYP3A; settings: ref [9]; cited from earlier work
# [4] = system: CYP3A4; settings: cited from earlier work
# [5] = system: CYP3A4/5; assay: in vitro CYP450 metabolism inhibition assay in human liver microsomes, CYP3A (midazolam or nifedipine); settings: human, microsomes, pH 7.4
# Procedure: (§1) The incubation conditions employed for each CYP450 isoform were performed, as previously described.
# (§2) Buffer solution (0.1 mol/L aqueous phosphate buffer, pH 7.4, 69 µL), NADPH-regenerating solutions (10 µL solution A: 26 mmol/L NADP+, 66 mmol/L glucose-6-phosphate, and 66 mmol/L MgCl2; 2 µL solution B: 40 U/mL glucose-6-phosphate dehydrogenase in 5 mmol/L sodium citrate), and deionized water (69 µL) were added, in a total volume of 150 μL. The tubes were vortex-mixed and preincubated with continuous gentle shaking for 5 min at 37 °C in a shaking water bath. Reactions were initiated by the addition of 50 µL of HLM solution in the tubes which were gently mixed by hand and incubated with continuous gentle shaking at 37 °C. Aliquots of 200 µL ice-cold solvent (Table 1) containing IS (1 µg/mL) were added. […] The supernatants were transferred to glass autosampler vials and submitted to LC-MS/MS analysis (5 µL injection volume) to monitor the substrate metabolite formation.
# [6] = target: T2, CYP2A6 (Homo sapiens, UniProt P11509); design: method as in PMID 25429674; settings: ref [9]; cited from earlier work
# T2 sequence (P11509 1-494): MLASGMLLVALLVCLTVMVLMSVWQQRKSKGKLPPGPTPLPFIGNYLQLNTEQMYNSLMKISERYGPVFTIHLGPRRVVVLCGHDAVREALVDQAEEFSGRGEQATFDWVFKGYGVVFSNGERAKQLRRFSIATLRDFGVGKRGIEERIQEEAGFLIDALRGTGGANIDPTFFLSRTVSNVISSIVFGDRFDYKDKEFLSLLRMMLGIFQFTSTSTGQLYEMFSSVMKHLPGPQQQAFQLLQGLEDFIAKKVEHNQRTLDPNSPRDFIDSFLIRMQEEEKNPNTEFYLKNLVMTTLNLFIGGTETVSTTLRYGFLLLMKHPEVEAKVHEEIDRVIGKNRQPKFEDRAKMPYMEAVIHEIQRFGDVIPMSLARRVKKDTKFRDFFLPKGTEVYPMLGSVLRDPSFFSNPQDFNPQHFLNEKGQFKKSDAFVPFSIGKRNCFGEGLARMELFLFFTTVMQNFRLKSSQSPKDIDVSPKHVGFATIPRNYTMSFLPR
# [7] = system: CYP1A1; design: method as in PMID 25429674; settings: ref [9]; cited from earlier work
# [8] = target: T3, CYP1A2 (Homo sapiens, UniProt P05177); design: method as in PMID 25429674; settings: ref [9]; cited from earlier work
# T3 sequence (P05177 1-516): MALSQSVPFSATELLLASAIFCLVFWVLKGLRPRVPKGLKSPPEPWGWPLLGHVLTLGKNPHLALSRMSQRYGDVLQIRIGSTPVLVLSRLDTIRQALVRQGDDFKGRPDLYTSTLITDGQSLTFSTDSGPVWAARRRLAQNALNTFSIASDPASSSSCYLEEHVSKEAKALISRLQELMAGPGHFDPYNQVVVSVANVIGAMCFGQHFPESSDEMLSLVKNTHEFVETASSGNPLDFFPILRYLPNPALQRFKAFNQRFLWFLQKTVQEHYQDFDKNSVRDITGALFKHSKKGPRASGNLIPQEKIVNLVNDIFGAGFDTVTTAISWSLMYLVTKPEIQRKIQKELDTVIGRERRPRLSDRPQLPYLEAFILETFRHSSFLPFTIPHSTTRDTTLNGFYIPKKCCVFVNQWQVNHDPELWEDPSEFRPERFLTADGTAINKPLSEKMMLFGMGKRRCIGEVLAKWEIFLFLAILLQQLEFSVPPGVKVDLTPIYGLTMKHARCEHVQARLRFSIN
# [9] = target: T3, CYP1A2; settings: cited from earlier work
# [10] = system: CYP2B6; design: method as in PMID 25429674; settings: ref [9]; cited from earlier work
# [11] = target: CYP2C19 (Homo sapiens, UniProt P33261); design: method as in PMID 25429674; settings: ref [9]; cited from earlier work
# [12] = target: CYP2D6 (Homo sapiens, UniProt P10635); design: method as in PMID 25429674; settings: ref [9]; cited from earlier work
# [13] = target: T2, CYP2A6; assay: in vitro CYP450 metabolism inhibition assay in human liver microsomes, CYP2A6 (coumarin); settings: HLM, substrate coumarin; figure in parentheses not defined
# Procedure: as §1, §2
# Sequence of CYP2C19 (P33261 whole entry): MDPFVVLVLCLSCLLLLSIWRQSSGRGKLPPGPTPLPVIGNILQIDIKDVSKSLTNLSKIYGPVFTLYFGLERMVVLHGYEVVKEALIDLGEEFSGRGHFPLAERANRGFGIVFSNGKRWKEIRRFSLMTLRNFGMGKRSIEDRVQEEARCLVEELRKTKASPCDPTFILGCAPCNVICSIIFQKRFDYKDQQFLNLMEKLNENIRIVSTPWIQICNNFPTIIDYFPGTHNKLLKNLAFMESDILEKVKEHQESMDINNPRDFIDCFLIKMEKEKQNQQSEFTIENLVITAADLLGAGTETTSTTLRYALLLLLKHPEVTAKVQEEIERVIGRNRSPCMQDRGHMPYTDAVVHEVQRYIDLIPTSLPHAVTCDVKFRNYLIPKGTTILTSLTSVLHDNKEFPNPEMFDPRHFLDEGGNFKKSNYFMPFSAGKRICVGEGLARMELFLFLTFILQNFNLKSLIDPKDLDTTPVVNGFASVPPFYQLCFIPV
# Sequence of CYP2D6 (P10635 whole entry): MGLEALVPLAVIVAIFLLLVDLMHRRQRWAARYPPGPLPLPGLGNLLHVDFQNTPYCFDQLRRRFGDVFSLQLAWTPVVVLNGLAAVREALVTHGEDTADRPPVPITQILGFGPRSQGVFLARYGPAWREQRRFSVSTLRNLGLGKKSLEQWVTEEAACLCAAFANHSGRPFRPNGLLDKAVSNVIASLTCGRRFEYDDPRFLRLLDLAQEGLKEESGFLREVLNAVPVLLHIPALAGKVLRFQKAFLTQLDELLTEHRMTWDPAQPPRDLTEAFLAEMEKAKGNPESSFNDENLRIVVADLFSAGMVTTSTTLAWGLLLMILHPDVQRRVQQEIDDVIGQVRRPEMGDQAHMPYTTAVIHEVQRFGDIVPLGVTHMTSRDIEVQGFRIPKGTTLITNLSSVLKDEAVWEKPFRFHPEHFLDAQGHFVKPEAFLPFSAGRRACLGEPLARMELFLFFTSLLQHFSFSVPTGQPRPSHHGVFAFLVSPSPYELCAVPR
compound,measurement,setting,value
CC(=O)O[C@H]1C(=O)[C@@]2(C)[C@H]([C@H](OC(=O)c3ccccc3)[C@]3(O)C[C@H](OC(=O)[C@H](O)[C@@H](NC(=O)c4ccccc4)c4ccccc4)C(C)=C1C3(C)C)[C@]1(OC(C)=O)CO[C@@H]1C[C@@H]2O [Paclitaxel],fm (fraction metabolized),[1],0.5
CC[C@@H]([C@H](C)O)n1ncn(-c2ccc(N3CCN(c4ccc(OC[C@@H]5CO[C@@](Cn6cncn6)(c6ccc(F)cc6F)C5)cc4)CC3)cc2)c1=O [posaconazole],clinical CYP3A inhibitor strength,[2],moderate to strong CYP3A inhibitors
same,in vitro inhibition of CYP3A,[3],strongly inhibits
Cc1ncc2n1-c1ccc(Cl)cc1C(c1ccccc1F)=NC2 [Midazolam],fm (fraction metabolized),[4],0.88
CC(=O)N1CCN(c2ccc(OCC3COC(Cn4ccnc4)(c4ccc(Cl)cc4Cl)O3)cc2)CC1 (stereo not shown) [Ketoconazole],IC50,[5],< 10 nM
same,clinical CYP3A inhibitor strength,[2],moderate to strong CYP3A inhibitors
same,in vitro inhibition of CYP2A6,[6],moderately inhibits
same,in vitro inhibition of CYP1A1,[7],strongly inhibits
same,in vitro inhibition of CYP1A2,[8],moderately inhibits
same,in vitro inhibition of CYP3A,[3],strongly inhibits
CCOc1ccc(NC(C)=O)cc1 [Phenacetin],fm (fraction metabolized),[9],0.71
OC(Cn1cncn1)(Cn1cncn1)c1ccc(F)cc1F [fluconazole],clinical CYP3A inhibitor strength,[2],moderate to strong CYP3A inhibitors
same,in vitro inhibition of CYP3A,[3],moderately inhibits
Clc1ccc(COC(Cn2ccnc2)c2ccc(Cl)cc2Cl)c(Cl)c1 (stereo not shown) [miconazole],in vitro inhibition of CYP2B6,[10],strongly inhibits
same,in vitro inhibition of CYP2A6,[6],strongly inhibits
same,in vitro inhibition of CYP2C19,[11],strongly inhibits
same,in vitro inhibition of CYP3A,[3],strongly inhibits
same,in vitro inhibition of CYP2D6,[12],strongly inhibits
"N[C@@H]1C[C@H]1c1ccccc1 (racemic) [Tranylcypromine, reference compound]",IC50,[13],799 nM
CCC(C)n1ncn(-c2ccc(N3CCN(c4ccc(OCC5COC(Cn6cncn6)(c6ccc(Cl)cc6Cl)O5)cc4)CC3)cc2)c1=O (stereo not shown) [itraconazole],clinical CYP3A inhibitor strength,[2],moderate to strong CYP3A inhibitors
same,in vitro inhibition of CYP2B6,[10],strongly inhibits
same,in vitro inhibition of CYP3A,[3],strongly inhibits
